Like-named read-outs stand apart in the source and are kept apart here. Marks after values point to notes of the source that are not given here.
Experiments:
[1] = system: lung cancer cell A549; assay: Effects on the adhesive ability of lung cancer cell A549; assay type: cell-based, human; details: Final concentration 1 x 1.0*10^(−5) mol/L
Outline: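 A549 cells in 1640 medium with 10% FBS tested for adhesion to gelatin versus poly-lysine (PLL), with CCK8 used as read-out. Inhibition rate derived from the gelatin/PLL adhesion OD ratio of dosed cells relative to the undosed cell group.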

[2] = system: human umbilical vein endothelial cell HUVEC; assay: Lumen formation ability of HUVEC (Matrigel method); assay type: cell-based; details: Final concentration 1 x 1.0*10^(−5) mol/L
Outline: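 HUVEC at passage 3–5, cultured in M199 at 37° C under 5% CO2, were plated on Matrigel with compound. Spontaneous lumen formation was scored as an inhibition rate.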

[3] = system: mice S180 sarcoma; assay: Experimental therapeutic action on S180 sarcoma mice; details: for Tumor weight x ± SD: day 10; for Tumor growth inhibition rate (%): mice S180 sarcoma, 60 mg/kg orally for 9 days
Method: (§1) Experimental therapeutic action of the compound in the present invention on S180 sarcoma mice
(§2) 18-25 g female ICR mice and well grown 7-11 day old mice sarcoma S180 tumor seeds were selected, and the seeds were inoculated into the subcutaneous at the right axillary. After inoculated 24 hours, these mice were randomly divided into cages and orally administrated 60 mg/kg for 9 days. On 10 day, the animals were killed and weighed, and the tumor weights were weighed to calculate average tumor weight in each group, followed by calculating the tumor inhibition rate according to the following formula and T test.

[4] = system: human lung cancer A549 transplantation tumor; assay type: in vivo; details: BALB/cA nude mice; 60 mg/kg, 6 times every week for 3 weeks; Sorafenib oral 60 mg/kg
Outline: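 Female BALB/cA nude mice, 35-40 days old, bearing A549 human lung cancer transplants; 6 per treatment group, 12 saline controls. Compound given at 60 mg/kg, 6 times weekly for 3 weeks, then observed one week.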

[5] = system: human high-metastic lung cancer cell 95D; assay: Inhibition of human high-metastic lung cancer cell 95D migration (Boyden Chamber Transwell); assay type: cell-based; details: Final concentration 1 x 1.0*10^(−5) mol/L
Outline: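 Boyden Transwell migration (8 μm pores) of 95D cells, RPMI-1640 with 10% FBS versus serum-free medium; inhibition rate calculated.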

[6] = system: mice S180 sarcoma; details: mouse, in vivo, 60 mg/kg
Method: as §1, §2

[7] = system: Human colon cancer HT-29 transplantable tumor; assay: Human colon cancer HT-29 transplantable tumor in nude mice; details: for Relative tumor reproduction rate T/C (%): HT-29 in nude mice; for Relative tumor reproduction rate T/C (%) / RTV: 60 mg/kg ig 9 times; for RTV: relative tumor volume; for TV d0: tumor volume d0, 60 mg/kg; for TV d13: tumor volume d13, 60 mg/kg ig 9 times
Method: Experimental therapeutic action of the compound in the present invention on Human colon cancer HT-29 transplantable tumor in nude mice.
Take eugenic tumor tissues and cut into about 1.5 mm^3, and then incoculate subcutaneously at the right armpit of nude mice under the sterile conditions. The diameter of the transplantable tumor in nude mice was determined with a vernier caliper, and the animals were divided into groups after the tumors were grown to 100-300 mm^3. Using the method of measuring the tumor diameter, dynamically observe the antitumor effects of tested materials. The diameter of the tumor was determined three times every week and the mouse weight was weighed at the same time. […] The solvent was intragastrically administrated as the control for continuous 9 times. Equal amount of control was administrated in the negative control group.
Tumor volume (TV) is calculated as: TV=½×a×b^2, wherein a and b respectively represent length and width.
Relative tumor volume (RTV) is calculated as: RTV=TVt/TV0, wherein TV0 is the tumor volume when administrated according to different cages and TVt is the tumor volume measured each time.
Relative tumor reproduction rate T/C (%) is calculated as follows:
TRTV: RTV in the treatment group; CRTV: RTV in the negative control group.
The test results used relative tumor reproduction rate T/C (%) as evaluating indicator of anti-tumor activity.

[8] = system: human umbilical vein endothelial cell HUVEC; assay: Growth of human umbilical vein endothelial cell HUVEC by CCK8 method; assay type: cell-based; details: Final concentration 1 x 1.0*10^(−5) mol/L
Outline: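 HUVEC cells were grown in 1640 medium with 10% FBS, and growth was measured by the CCK8 method. OD values of drug and control wells were corrected by subtracting the blank-well OD.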

[9] = system: Raf-1(truncated); assay: Raf-1 inhibitor screening by chemoluminescence method; assay type: biochemical; details: Final concentration 1 x 1.0*10^−5 mol/ml
Text: 1. Inhibitory activity of the compound of the present invention on raf kinase
Raf-1 inhibitor screening by chemoluminescence method
Westernblot electrophoresis apparatus Rotaryshaker
Raf-1(truncated), Magnesium/ATP Cocktail, MEK1 unactive

[10] = system: human lung cancer cell strain A549; assay: MTT assay, inhibition of growth of human lung cancer cell strain A549; assay type: cell-based
Outline: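 A549 cells grown in F12 with 10% FBS; growth read by MTT, inhibition rate from blank-corrected OD of drug wells versus control wells.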

[11] = system: renal carcinoma cell line GCR-1 transplanted tumor; assay type: in vivo, BALB/cA nude mice; details: BALB/cA nude mice; 60 mg/kg, 6 times every week for 3 weeks; Sorafenib oral 60 mg/kg
Outline: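 Female BALB/cA nude mice (18–22 g) bearing GCR-1 renal carcinoma xenografts, 6 per treated group, 12 saline controls. Drug given at 60 mg/kg, 6 times weekly for 3 weeks, then one week of observation; tumor inhibition rate reported.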

[12] = system: human liver cancer cell bel-7402 transplantation tumor; assay type: in vivo; details: BALB/cA nude mice; 60 mg/kg, 6 times every week for 3 weeks; Sorafenib oral 60 mg/kg
Outline: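 Female BALB/cA nude mice (35–40 days, 18–22 g) bearing Bel-7402 xenografts; 6 mice per treated group, 12 in saline controls. Compound dosed at 60 mg/kg, 6 times weekly for 3 weeks, followed by one week of observation; tumor inhibition rate scored against controls.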

[13] = Final concentration 1 x 1.0*10^(−5) mol/L

Compound | Inhibition rate, adhesion ability of human lung cancer cell A549 [1] [%] | Inhibition rate, lumen formation ability of HUVEC [2] [%] | Tumor weight x ± SD ([3]; 60 mg/kg ig for 9 days) [g] | Tumor growth inhibition rate (%) [3] [%] | Relative tumor reproduction rate T/C (%) on human lung cancer A549 transplantation tumor in nude mice [4] [%] | Inhibition rate, 95D cell strain migration [5] [%] | Relative tumor reproduction rate T/C (%) ([7]; 60 mg/kg) | RTV [7] | TV d0 [7] | TV d13 [7] | Inhibition rate, growth of HUVEC cell [8] [%] | Inhibition rate % on raf kinase [9] [%] | Inhibition rate, growth of human lung cancer cell A549 [10, 13] [%] | Relative tumor reproduction rate T/C (%) on human renal carcinoma GCR-1 cell transplanted tumor model in nude mice [11] [%] | Relative tumor reproduction rate T/C (%) on human liver cancer cell bel-7402 transplantation tumor model in nude mice [12] [%] | Relative tumor reproduction rate T/C (%) [7] [%] | also measured
CNC(=O)c1cc(Oc2ccc(NC(=O)Nc3ccc(Br)c(C(F)(F)F)c3)cc2)c2cc(OC)ccc2n1 [Compound 3] | 79.66 | 76.61 | 0.75 ± 0.36 | 53.4 | 37.2 | 96.64 | 47.34 | 2.40 ± 0.67 | 133 ± 18 | 322 ± 129 | 27.67 | 56.3 | 69.67 | 31.3 | 30.1 | – | Weight (g) Start [6]: 18.0 ± 1.1 g
N-(4-chloro-3-(trifluoromethyl)phenyl)-N′-(4-(2-(N-methylaminoformoxyl)-4-(6-methoxyquinolinyl)oxy))phenyl)urea [Compound 1] | 60.22 | 72.22 | 0.99 ± 0.20 | 38.5 | 38.7 | 80.21 | 55.42 | 2.81 ± 1.05 | 128 ± 34 | 359 ± 108 | 9.20 | 75.0 | 50.20 | 30.5 | 33.7 | – | Weight (g) Start ([3]; mouse body weight at start, 60 mg/kg ig): 18.7 ± 1.9 g; Weight (g) Final ([3]; mouse body weight final, 60 mg/kg ig for 9 days): 22.3 ± 1.3 g; Weight (g) d0 ([7]; nude mouse body weight d0, 60 mg/kg): 19.5 ± 1.0 g; Weight (g) d13 ([7]; nude mouse body weight d13, 60 mg/kg ig 9 times): 20.5 ± 1.1 g
N-(4-chloro-3-(trifluoromethyl)phenyl)-N′-(4-(2-(N-methylaminoformoxyl)-4-(7 fluoroquinazolinyl)oxy)phenyl)urea [Compound 4] | 89.71 | 86.77 | – | 50.1 | 12.3 | 96.38 | – | – | – | – | 5.12 | 82.2 | 91.12 | 9.6 | 15.3 | 33.15 | –
N-(4-chloro-3-(trifluoromethyl)phenyl)-N′-(4-(2-(N-methylaminoformoxyl)-4-(7-amino-isoquinolyl)oxy)phenyl)urea [Compound 10] | 64.57 | 50.34 | – | 55.2 | 30.1 | 61.43 | – | – | – | – | 14.50 | 3.5 | 74.50 | 27.1 | 28.1 | 78.9 | –
N-(4-fluoro-3-(trifluoromethyl)phenyl)-N′-(4-(4-(2-methyl-pyrryl)oxy)phenyl)urea [Compound 29] | 91.40 | 86.43 | – | 14.2 | 14.7 | 61.44 | – | – | – | – | 21.40 | 85.3 | – | 12.8 | 16.2 | 78.3 | Inhibition rate, growth of human lung cancer cell A549 [10]: 86.42%

From patent US8957087B2, “Heterocyclic substituted acardite derivate and application thereof” (Jiangsu Provincial Institute of Materia Medica Co., Ltd., priority 2009, dated 2015)
